Assay results taken from article PMC5353780, “A novel benzo-heterocyclic amine derivative N30 inhibits influenza virus replication by depression of Inosine-5’-Monophospate Dehydrogenase activity” (Virology Journal, 2017).
Counter-ions that a name gives are not always drawn. Like-named read-outs stand apart in the source and are kept apart here.

Key:
A/FortMonmouth/1/1947 = assay: CPE assay in MDCK cells; type: cell-based, Influenza A virus (H1N1); conditions: for IC50: Influenza A virus, CPE, MDCK cells; for SI: TC50/IC50
A/wuhan/359/1995 = assay: CPE assay in MDCK cells; type: cell-based, Influenza A virus (H3N2); conditions: for IC50: Influenza A virus, CPE, MDCK cells; for SI: TC50/IC50
BV/shenzhen/155/2005 = assay: CPE assay in MDCK cells; type: cell-based, influenza B virus; conditions: for IC50: Influenza B virus, CPE, MDCK cells; for SI: TC50/IC50
BY/fujianxinluo/54/2006 = assay: CPE assay in MDCK cells; type: cell-based, influenza B virus; conditions: for IC50: Influenza B virus, CPE, MDCK cells; for SI: TC50/IC50
[1] = in vivo; cited from earlier work
CVB1 (strain Conn-5) = assay: CPE assay; type: cell-based, Coxsackie virus B; conditions: for IC50: Enterovirus B, CVB1, CPE
CVB2 (strain Ohio-1) = assay: CPE assay; type: cell-based, Coxsackie virus B; conditions: for IC50: Enterovirus B, CVB2, Ohio-1, CPE
CVB3 (strain Nancy) = assay: CPE assay; type: cell-based, Coxsackie virus B; conditions: for IC50: Enterovirus B, CVB3, CPE
CVB4 (strain J.V.B.) = assay: CPE assay; type: cell-based, Coxsackie virus B; conditions: for IC50: Enterovirus B, CVB4, CPE
CVB5 (strain Faulkner) = assay: CPE assay; type: cell-based, Coxsackie virus B; conditions: for IC50: Enterovirus B, CVB5, CPE
CVB6 (strain Schmitt) = assay: CPE assay; type: cell-based, Coxsackie virus B; conditions: for IC50: CPE
EV71(SZ98) = assay: CPE assay; type: cell-based, Human enterovirus 71; conditions: for IC50: Enterovirus A, EV71, CPE; for SI: TC50/IC50
EV71(BrCr) = assay: CPE assay; type: cell-based, Human enterovirus 71; conditions: for IC50: Enterovirus A, EV71, CPE; for SI: TC50/IC50
NA of IAV A/FM1/1947 = assay: NA inhibition assay (MUNANA); type: biochemical, Influenza A virus; conditions: Fig. 2a
viral hemagglutinin = tested on: viral hemagglutinin; design: species or system Influenza A virus; conditions: maximum concentration 40 μM, 10-fold dilutions; Fig. 2b
Procedure: Briefly, the diluted IAV were mixed with diluted compounds in a U bottom 96-well plate. After incubation at 4 °C for 40 min, equal volume of 1.2% chicken erythrocyte suspension was added to each well. Then, the erythrocyte aggregation was evaluated by visual inspection after 40 min [17, 18].

IMPDH type II [2] = biological target: T1, IMPDH type II (Homo sapiens, UniProt P12268); assay: Enzymatic assay of IMPDH type II; type: biochemical; conditions: after N30 treatment; Fig. 3b
T1 construct: purchased Sigma-Aldrich
Procedure: The enzymatic assay was employed to evaluate the inhibitory effect of N30 on the activity of IMPDH type II by following the increase in formation of nicotinamide-adenine dinucleotide (NADH), which absorbance was read at 340 nm on Enspire at 30 °C. The 200 μL assay buffer contained 1 M Tris/HCl (pH 8.8), 1 M KCl, 30 mM EDTA, 10 μL IMPDH type II (Sigma-Aldrich), 1 mM DTT and NAD (Sigma-Aldrich). The reaction was started after addition of IMP, with final concentrations was 1 mM [19].

IMPDH type II [3] = assay: IMPDH type II expression by western blot in MDCK cells; type: cell-based, canine; conditions: 24 h treatment, Fig. 3a
[4] = tested on: IAV A/Fort Monmouth/1/1947 (H1N1); assay: IAV M2 protein and RNA expression in MDCK cells (western blot, qRT-PCR); type: cell-based, Influenza A virus (H1N1); conditions: 0.01 MOI, 24 h post-infection, Fig. 1c and d
Procedure: Fig. 1 Effects of N30 on IAV M2 protein and RNA expression in MDCK. a Chemical structure of N30. b The effect of N30 on viabilities of MRC-5, Vero, MDCK and Hep2 cells, which were measured by CCK. c The effect of N30 with different concentrations on IAV M2 protein and RNA expression. d The effect of N30 on IAV M2 protein and RNA expression compared with reference drugs. MDCK cells were infected with IAV A/Fort Monmouth/1/1947(H1N1) (0.01 multiplicity of infection [MOI, plaque-forming units (PFU)/cell]) for 2 hours, and treated with different concentrations of N30 or reference drugs for 24 h. Total mRNA and protein were extracted at 24 h post-infection, and analyzed by qRT-PCR and Western blotting respectively. […]
Cells were collected at 24 h post-infection and lysed in M-PER mammalian protein extraction reagent containing halt protease inhibitor cocktail (Thermo Fisher Scientific), sample proteins were subjected to SDS-PAGE and transferred to PVDF membrane (Millipore). After blocked with 5% milk, the membranes were incubated with antibodies against Influenza M2, β-actin (Santa Cruz), CVB3 VP1 (Millipore), IMPDH type II (Sigma-Aldrich), RSV M2 (Santa Cruz) and coronavirus (FIPV-70, Santa Cruz) respectively, then, the HRP-conjugated secondary antibodies were incubated and the signals were detected using an enhanced chemiluminescence (ECL) kit (GE Healthcare Life Sciences). […]

RSV = type: cell-based, respiratory syncytial virus (long strain)
[5] = In vivo toxicity, body weight in mice; design: species or system female Kun Ming mice; conditions: 100 mg/kg by oral administration in mice
Procedure: To determine the in vivo toxicity of N30 preliminarily, female Kun Ming mice were gavaged 100 mg/kg and 50 mg/kg N30 twice a day. Six mice enrolled in each group were gavaged with N30 or vehicle for continuous administration for 14 days, then weighted at day 0, 5, 10 and 14 respectively, shown in Table 5.

MDCK cells = conditions: dog, 48 h
Vero cells [6] = conditions: African green monkey, 48 h
IAV = conditions: in vitro, at low micromolar concentrations; cited from earlier work
Vero cells [7] = assay: Cytotoxicity test (CCK); conditions: 50% toxicity concentration
[8] = human, in vivo, cited from earlier work

Compound | IC50 (A/FortMonmouth/1/1947) | IC50 (A/wuhan/359/1995) | IC50 (BV/shenzhen/155/2005) | IC50 (BY/fujianxinluo/54/2006) | SI (A/FortMonmouth/1/1947) | SI (A/wuhan/359/1995) | SI (BV/shenzhen/155/2005) | SI (BY/fujianxinluo/54/2006) | IC50 (CVB1 (strain Conn-5)) | IC50 (CVB2 (strain Ohio-1)) | IC50 (CVB3 (strain Nancy)) | IC50 (CVB4 (strain J.V.B.)) | IC50 (CVB5 (strain Faulkner)) | IC50 (CVB6 (strain Schmitt)) | IC50 (EV71(SZ98)) | SI (EV71(SZ98)) | IC50 (EV71(BrCr)) | SI (EV71(BrCr)) | effect on NA activity (NA of IAV A/FM1/1947) | hemagglutination inhibition (aggregation of chicken erythrocytes) (viral hemagglutinin) | also measured
NC12CC3CC(CC(C3)C1)C2 [AH, amantadine hydrochloride] | 0.65 ± 0.59 µM | 15.6 ± 0.31 µM | > 200 µM | > 200 µM | – | – | – | – | – | – | – | – | – | – | – | – | – | – | – | – | –
COc1c(C)c2c(c(O)c1C/C=C(\C)CCC(=O)OCCN1CCOCC1)C(=O)OC2 [MMF, mycophenolate mofetil] | – | – | – | – | – | – | – | – | – | – | – | – | – | – | – | – | – | – | – | – | side effects [1]: diarrhea, leucopenia, sepsis, and vomiting
O=[N+]([O-])c1ccc(CNc2ccc3ncsc3c2)cc1 [N30, N-(4-nitrophenylmethyl) benzothiazole-6-amine] | 1.93 ± 0.16 µM | 1.31 ± 0.87 µM | 1.16 ± 0.69 µM | 0.7 ± 0.18 µM | 34.54 | 50.89 | 57.47 | 95.24 | 6.28 ± 1.61 µM | 11.7 ± 2.94 µM | 1.82 ± 2.76 µM | 10.4 ± 3.13 µM | 2.54 ± 1.43 µM | 6.81 ± 1.89 µM | 10.6 ± 3.76 µM | 8.42 | 8.04 ± 3.77 µM | 11.14 | little inhibitory effect | could not inhibit the aggregation of chicken erythrocytes | SI (CVB1 (strain Conn-5); TC50/IC50): 14.26; SI (CVB2 (strain Ohio-1); TC50/IC50): 7.69; SI (CVB3 (strain Nancy); TC50/IC50): 49.21; SI (CVB4 (strain J.V.B.); TC50/IC50): 8.64; SI (CVB5 (strain Faulkner); TC50/IC50): 35.26; SI (CVB6 (strain Schmitt)): 13.15; reduction of the enzymatic reaction rate of IMPDH (IMPDH type II [2]): 38.18%; IMPDH expression (IMPDH type II [3]): have not been lessened; amounts of IAV M2 protein and RNA [4]: dosage dependent relationship; expression of the viral proteins (RSV; 10 μM N30, RSV-infected Hep2 cells): almost completely inhibit; RSV M2 mRNA and protein expressions (RSV; RSV-infected Hep2 cells, 0.025 MOI, 24 h, Fig. 4b): markedly decreased; acute toxicity [5]: little acute toxicity; TC50 (MDCK cells): 66.67 µM; TC50 (Vero cells [6]): 89.56 ± 4.25 µM; activity towards IAV (IAV): potent activity
CCC(CC)O[C@@H]1C=C(C(=O)O)C[C@H](N)[C@H]1NC(C)=O [OC, oseltamivir carboxylate] | 0.25 ± 0.01 µM | 0.12 ± 0.01 µM | 1.02 ± 0.08 µM | 0.56 ± 0.02 µM | >200 | >416.67 | >49.02 | >89.28 | – | – | – | – | – | – | – | – | – | – | significantly reduce the activity of NA in a dose dependent manner | did not show the inhibitory effect | TC50 (MDCK cells): > 50 µM
CCOC(=O)c1ccc(OCCC2CCN(c3ccc(C)nn3)CC2)cc1 [Pirodavir] | – | – | – | – | – | – | – | – | – | – | – | – | – | – | 0.27 ± 0.27 µM | 120.6 | 0.16 µM | 203.56 | – | – | TC50 (Vero cells [7]; Tables 3 and 4, CCK, 48 h): 32.57 ± 0.55 µM
NC(=O)c1ncn([C@@H]2O[C@H](CO)[C@@H](O)[C@H]2O)n1 [RBV, Ribavirin] | 1.64 ± 0.72 µM | 8.23 ± 6.31 µM | 1.7 ± 0.57 µM | 2.48 ± 0.53 µM | – | – | – | – | 2370 ± 360 µM | 2270 ± 180 µM | 3130 ± 1210 µM | 2470 ± 1600 µM | 1200 ± 530 µM | 4560 ± 2410 µM | – | – | – | – | – | did not show the inhibitory effect | IMPDH expression (IMPDH type II [3]): no inhibition; bilirubin values ([8]; po): elevated the bilirubin values; anemia [8]: transient anemia; TC50 (Vero cells [7]; Table 3): >20000 µM
